Results as given in ChEMBL document CHEMBL5260848, “Recent advancements in the development of bioactive pyrazoline derivatives” (Eur J Med Chem, 2020).
≈ marks a conversion by molar mass, not a printed value.

Legend:
[1] = organism: Mus musculus; assay: Antidepressant activity in Swiss albino mouse assessed as decrease in immobility time by forced swimming test; format: functional
[2] = organism: Mus musculus; assay: Antidepressant activity in Swiss albino mouse assessed as decrease in immobility time by tail suspension test; format: functional
[3] = organism: Homo sapiens; assay: Selectivity index, ratio of Ki for human MAO-A to Ki for human MAO-B
[4] = target: T1, Amine oxidase [flavin-containing] A (Homo sapiens, UniProt P21397)
T1 sequence (P21397 whole entry): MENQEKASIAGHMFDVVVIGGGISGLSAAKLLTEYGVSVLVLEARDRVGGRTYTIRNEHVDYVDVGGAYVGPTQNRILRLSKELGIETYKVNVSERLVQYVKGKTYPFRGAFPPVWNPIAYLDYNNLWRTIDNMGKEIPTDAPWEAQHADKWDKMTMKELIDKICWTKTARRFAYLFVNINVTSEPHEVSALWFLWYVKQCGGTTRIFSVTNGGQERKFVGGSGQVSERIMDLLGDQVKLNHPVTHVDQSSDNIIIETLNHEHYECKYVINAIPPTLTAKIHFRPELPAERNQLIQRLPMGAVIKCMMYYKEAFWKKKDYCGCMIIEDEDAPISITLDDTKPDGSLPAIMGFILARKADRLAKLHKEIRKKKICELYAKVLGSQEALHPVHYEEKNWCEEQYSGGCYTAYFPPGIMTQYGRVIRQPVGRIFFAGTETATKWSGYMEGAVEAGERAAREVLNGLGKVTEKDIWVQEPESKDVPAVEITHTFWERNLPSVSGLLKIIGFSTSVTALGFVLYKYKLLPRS

[5] = target: T2, Amine oxidase [flavin-containing] B (Homo sapiens, UniProt P27338)
T2 sequence (P27338 whole entry): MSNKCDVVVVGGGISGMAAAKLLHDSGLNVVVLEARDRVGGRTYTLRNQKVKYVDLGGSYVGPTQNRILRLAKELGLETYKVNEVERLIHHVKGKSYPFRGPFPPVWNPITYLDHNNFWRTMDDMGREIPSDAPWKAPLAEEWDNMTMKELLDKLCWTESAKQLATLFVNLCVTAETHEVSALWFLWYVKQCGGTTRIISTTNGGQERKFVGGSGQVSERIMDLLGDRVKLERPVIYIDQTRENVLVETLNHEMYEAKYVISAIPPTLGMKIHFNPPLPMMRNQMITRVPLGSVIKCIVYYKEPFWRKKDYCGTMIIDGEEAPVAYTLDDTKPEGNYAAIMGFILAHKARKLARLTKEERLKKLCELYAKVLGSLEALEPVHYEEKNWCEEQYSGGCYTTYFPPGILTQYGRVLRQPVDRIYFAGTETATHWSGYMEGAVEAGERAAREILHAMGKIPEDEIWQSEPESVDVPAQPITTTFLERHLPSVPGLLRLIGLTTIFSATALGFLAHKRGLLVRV

[6] = organism: Mus musculus; assay: Antidepressant activity in mouse assessed as […] by tail suspension test; format: functional
[7] = organism: Mus musculus; assay: Antidepressant activity in mouse assessed as […] by forced swimming test; format: functional
[8] = system: Escherichia coli; assay: Antibacterial activity against Escherichia coli incubated for 24 hrs by disc diffusion method; format: functional
[9] = system: Aspergillus fumigatus; assay: Antifungal activity against Aspergillus fumigatus incubated for 24 hrs by disc diffusion method; format: functional
[10] = system: Aspergillus niger; assay: Antifungal activity against Aspergillus niger incubated for 24 hrs by disc diffusion method; format: functional
[11] = system: Aspergillus flavus; assay: Antifungal activity against Aspergillus flavus incubated for 24 hrs by disc diffusion method; format: functional
[12] = system: Mycobacterium tuberculosis; assay: microbe, parasite or virus in culture; conditions: 120 h
[13] = system: Staphylococcus aureus; assay: microbe, parasite or virus in culture; conditions: 24 h
[14] = system: Bacillus subtilis; assay: microbe, parasite or virus in culture; conditions: 24 h
[15] = system: Pseudomonas aeruginosa; assay: microbe, parasite or virus in culture; conditions: 24 h
[16] = system: Candida albicans; assay: microbe, parasite or virus in culture; conditions: 24 h

COc1cc(-c2ccc(C3=NNC(c4ccc(Br)cc4)C3)c(C)n2)cc(OC)c1OC (stereo not given)
Time [1]: 66.67 s
Time [2]: 70.33 s

C=CCNC(=S)N1N=C(c2ccc(C)cc2)CC1c1ccc(F)cc1 (stereo not given)
Ratio Ki [3]: 0.000464
Ki [4]: 0.1 nM
Ki [5]: 200 nM

c1coc(C2CC(c3cccc4ccccc34)=NN2)c1 (stereo not given)
Time [6]: 21.17 s
Time [7]: 21.17 s

c1csc(C2CC(c3cccc4ccccc34)=NN2)c1 (stereo not given)
Time [6]: 21.17 s
Time [7]: 21.17 s

CNC(=S)N1N=C(c2ccc(OC)cc2)CC1c1ccc(F)cc1 (stereo not given)
Ratio Ki [3]: 0.000464
Ki [4]: 0.1 nM
Ki [5]: 200 nM

COc1ccc(C2CC(c3ccccc3)=NN2C(=O)NNS(=O)(=O)c2ccc(F)cc2)cc1 (stereo not given)
MIC [8]: 25 µg/mL (≈ 53.4 µM)
MIC [9]: 25 µg/mL (≈ 53.4 µM)
MIC [10]: 25 µg/mL (≈ 53.4 µM)
MIC [11]: 25 µg/mL (≈ 53.4 µM)
MIC [12]: 0.8 µg/mL (≈ 1.71 µM)
MIC [13]: 25 µg/mL (≈ 53.4 µM)
MIC [14]: 25 µg/mL (≈ 53.4 µM)
MIC [15]: 25 µg/mL (≈ 53.4 µM)
MIC [16]: 25 µg/mL (≈ 53.4 µM)

CSc1ccc(C2CC(c3ccccc3)=NN2C(=O)NNS(=O)(=O)c2ccccc2)cc1 (stereo not given)
MIC [8]: 25 µg/mL (≈ 53.6 µM)
MIC [9]: 25 µg/mL (≈ 53.6 µM)
MIC [10]: 25 µg/mL (≈ 53.6 µM)
MIC [11]: 25 µg/mL (≈ 53.6 µM)
MIC [12]: 0.8 µg/mL (≈ 1.71 µM)
MIC [13]: 25 µg/mL (≈ 53.6 µM)
MIC [14]: 25 µg/mL (≈ 53.6 µM)
MIC [15]: 25 µg/mL (≈ 53.6 µM)
MIC [16]: 25 µg/mL (≈ 53.6 µM)

Cc1ccc(C2=NN(C(=S)Nc3ccccc3)C(c3ccc(F)cc3)C2)cc1 (stereo not given)
Ki [4]: 0.1 nM

O=C(NNS(=O)(=O)c1ccc(F)cc1F)N1N=C(c2ccccc2)CC1c1ccc(Br)cc1 (stereo not given)
MIC [8]: 25 µg/mL (≈ 46.7 µM)
MIC [9]: 25 µg/mL (≈ 46.7 µM)
MIC [10]: 25 µg/mL (≈ 46.7 µM)
MIC [11]: 25 µg/mL (≈ 46.7 µM)
MIC [12]: 0.8 µg/mL (≈ 1.49 µM)
MIC [13]: 25 µg/mL (≈ 46.7 µM)
MIC [14]: 25 µg/mL (≈ 46.7 µM)
MIC [15]: 25 µg/mL (≈ 46.7 µM)
MIC [16]: 25 µg/mL (≈ 46.7 µM)

C=CCNC(=S)N1N=C(c2ccc(OC)cc2)CC1c1ccc(F)cc1 (stereo not given)
Ki [4]: 0.1 nM
Ki [5]: 200 nM

Oc1ccc(C2=NNC(c3cccs3)C2)cc1 (stereo not given)
Time [6]: 21.17 s
Time [7]: 21.17 s

Clc1ccc(C2=NNC(c3ccco3)C2)cc1 (stereo not given)
Time [6]: 21.17 s
Time [7]: 21.17 s

O=C(NNS(=O)(=O)c1ccc(F)cc1F)N1N=C(c2ccccc2)CC1c1ccccc1 (stereo not given)
MIC [8]: 25 µg/mL (≈ 54.8 µM)
MIC [9]: 25 µg/mL (≈ 54.8 µM)
MIC [10]: 25 µg/mL (≈ 54.8 µM)
MIC [11]: 25 µg/mL (≈ 54.8 µM)
MIC [12]: 0.8 µg/mL (≈ 1.75 µM)
MIC [13]: 25 µg/mL (≈ 54.8 µM)
MIC [14]: 25 µg/mL (≈ 54.8 µM)
MIC [15]: 25 µg/mL (≈ 54.8 µM)
MIC [16]: 25 µg/mL (≈ 54.8 µM)

c1ccc(C2=NNC(c3cccs3)C2)nc1 (stereo not given)
Time [6]: 21.17 s
Time [7]: 21.17 s

Clc1ccc(C2=NNC(c3cccs3)C2)cc1 (stereo not given)
Time [6]: 21.17 s
Time [7]: 21.17 s

Clc1ccc(C2CC(c3cccc4ccccc34)=NN2)cc1 (stereo not given)
Time [6]: 29.67 s
Time [7]: 43.33 s

COc1ccc(C2CC(c3ccccc3)=NN2C(=O)NNS(=O)(=O)c2ccc(F)cc2F)cc1 (stereo not given)
MIC [8]: 25 µg/mL (≈ 51.4 µM)
MIC [9]: 25 µg/mL (≈ 51.4 µM)
MIC [10]: 25 µg/mL (≈ 51.4 µM)
MIC [11]: 25 µg/mL (≈ 51.4 µM)
MIC [12]: 0.8 µg/mL (≈ 1.64 µM)
MIC [13]: 25 µg/mL (≈ 51.4 µM)
MIC [14]: 25 µg/mL (≈ 51.4 µM)
MIC [15]: 25 µg/mL (≈ 51.4 µM)
MIC [16]: 25 µg/mL (≈ 51.4 µM)

O=C(NNS(=O)(=O)c1ccccc1)N1N=C(c2ccccc2)CC1c1ccc(Cl)cc1 (stereo not given)
MIC [8]: 25 µg/mL (≈ 55 µM)
MIC [9]: 25 µg/mL (≈ 55 µM)
MIC [10]: 25 µg/mL (≈ 55 µM)
MIC [11]: 25 µg/mL (≈ 55 µM)
MIC [12]: 1.6 µg/mL (≈ 3.52 µM)
MIC [13]: 25 µg/mL (≈ 55 µM)
MIC [14]: 25 µg/mL (≈ 55 µM)
MIC [15]: 25 µg/mL (≈ 55 µM)
MIC [16]: 25 µg/mL (≈ 55 µM)

CCNC(=S)N1N=C(c2ccc(C)cc2)CC1c1ccc(F)cc1 (stereo not given)
Ratio Ki [3]: 0.000464
Ki [4]: 0.1 nM
Ki [5]: 200 nM

CNC(=S)N1N=C(c2ccc(Cl)cc2)CC1c1ccc(F)cc1 (stereo not given)
Ratio Ki [3]: 0.000464
Ki [4]: 0.1 nM
Ki [5]: 200 nM

CNC(=S)N1N=C(c2ccc(C)cc2)CC1c1ccc(F)cc1 (stereo not given)
Ratio Ki [3]: 0.000464
Ki [4]: 0.1 nM
Ki [5]: 200 nM

Clc1ccc(C2=NNC(c3ccc(Cl)cc3)C2)cc1 (stereo not given)
Time [6]: 21.17 s
Time [7]: 21.17 s
